Measured values taken from patent US7132449B2, “Inhibitors of cruzipain and other cysteine proteases” (Amura Therapeutics Limited, priority 2001, dated 2006).

Assays:
[1] = molecular target: Cruzipain (Trypanosoma cruzi, UniProt P25779); assay: Trypanosoma cruzi cruzipain peptidase activity assay (Ki); assay type: biochemical; details: wild-type cruzipain from Trypanosoma cruzi Dm28 epimastigotes, pH 6.75, 25±1° C.
Description: (§1) Assay protocols were based on literature precedent (Table 1; Barrett, A. J., Rawlings, N. D. and Woessner, J. F., 1998, Handbook of Proteolytic Enzymes, Academic Press, London and references therein) and modified as required to suit local assay protocols. Enzyme was added as required to initiate the reaction and the activity, as judged by the change in fluorescence upon conversion of substrate to product, was monitored over time. All assays were carried out at 25±1° C.
Wild-type cruzipain, derived from Trypanosoma cruzi Dm28 epimastigotes, was obtained from Dr. Julio Scharfstein (Instituto de Biofisica Carlos Chagas Filho, Universidade Federal do Rio de Janeiro, R10 de Janeiro, Brazil). Activity assays were carried out in 100 mM sodium phosphate, pH 6.75 containing 1 mM EDTA and 10 mM L-cysteine using 2.5 nM enzyme. Ac-Phe-Arg-AMC (KM^app≈12 μM) and D-Val-Leu-Lys-AMC (KM^app≈4 μM) were used as the substrates. Routinely, Ac-FR-AMC was used at a concentration equivalent to KM^app and D-Val-Leu-Lys-AMC was used at a concentration of 25 μM. The rate of conversion of substrate to product was derived from the slope of the increase in fluorescence monitored continuously over time.
(§2) The apparent inhibition constant (Ki) for each compound was determined on the basis that inhibition was reversible and occurred by a pure-competitive mechanism. The Ki values were calculated, from the dependence of enzyme activity as a function of inhibitor concentration, by direct regression analysis (Prism v 3.02) using Equation 2 (Cornish-Bowden, A., 1995.).
(§3) In situations where the apparent dissociation constant (Ki^app) approached the enzyme concentrations, the Ki^app values were calculated using a quadratic solution in the form described by Equation 3 (Morrison, J. F. Trends Biochem. Sci., 7, 102–105, 1982; Morrison, J. F. Biochim. Biophys. Acta, 185, 269–286, 1969; Stone, S. R. and Hofsteenge, J. Biochemistry, 25, 4622–4628, 1986).

[2] = molecular target: T1, Bovine Cathepsin S (Bos taurus, UniProt P25326); assay: Cathepsin peptidase activity assay, bovine cathepsin S (Ki); assay type: biochemical; details: pH 6.5, 25±1° C.
T1 construct: purchased CN Biosciences
T1 sequence (P25326 115-331): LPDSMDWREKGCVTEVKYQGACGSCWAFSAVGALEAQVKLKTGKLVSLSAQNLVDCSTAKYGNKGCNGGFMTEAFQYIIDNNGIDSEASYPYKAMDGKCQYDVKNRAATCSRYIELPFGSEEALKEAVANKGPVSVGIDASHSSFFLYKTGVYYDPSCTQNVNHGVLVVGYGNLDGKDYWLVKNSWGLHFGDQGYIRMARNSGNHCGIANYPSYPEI
Description: as §1
(§4) Bovine cathepsin S, human cathepsin L, human cathepsin H and human cathepsin B were obtained from CN Biosciences. Recombinant human cathepsin S, human cathepsin K and human cathepsin X were obtained from Dr. Boris Turk (Josef Stefan Institute, Ljubljana, Slovenia). Unless otherwise stated, all peptidase activity assays were carried out in 10 mM bis-tris-propane (BTP), pH 6.5 containing 1 mM EDTA, 5 mM 2-mercaptoethanol and 1 mM CaCl2. Human cathepsin H activity assays were carried out in 10 mM BTP pH 6.5, 142 mM […], 1 mM CaCl2, 1 mM EDTA, 1 mM DTT, 0.035 mM Zwittergent 3–16. Human cathepsin K assays were carried out in 100 mM sodium acetate; pH 5.5 containing 20 mM L-cysteine and 1 mM EDTA (Bossard, M. J., et. al., J. Biol. Chem., […], 12517–12524, 1996). […] The final enzyme concentrations used in the assays were 0.5 nM bovine cathepsin S, 1 nM cathepsin L, 0.1 nM cathepsin B, 0.25 nM Cathepsin K; 1 nM cathepsin X and 10 nM cathepsin H. For the inhibition assays, the substrates used for cathepsin S, cathepsin L, cathepsin B, cathepsin K and cathepsin H were boc-Val-Leu-Lys-AMC (KM^app≈30 μM, Ac-Phe-Arg-AMC (KMaPP 20 EM), Z-Phe-Arg-AMC (KM^app≈40 μM), Z-Leu-Arg-AMC (KM^app≈2 μM); Bz-Phe-Val-Arg-AMC (KM^app≈150 μM) respectively. In each case the substrate concentration used in each assay was equivalent to the KM^app. The rate of conversion of substrate to product was derived from the slope of the increase in fluorescence monitored continuously over time.
as §2, §3

[3] = molecular target: T2, Human Cathepsin K (Homo sapiens, UniProt P43235); assay: Cathepsin peptidase activity assay, human cathepsin K (Ki); assay type: biochemical; details: pH 5.5, 25±1° C.
T2 construct: Dr. Boris Turk (Josef Stefan Institute, Ljubljana, Slovenia)
T2 sequence (P43235 115-329): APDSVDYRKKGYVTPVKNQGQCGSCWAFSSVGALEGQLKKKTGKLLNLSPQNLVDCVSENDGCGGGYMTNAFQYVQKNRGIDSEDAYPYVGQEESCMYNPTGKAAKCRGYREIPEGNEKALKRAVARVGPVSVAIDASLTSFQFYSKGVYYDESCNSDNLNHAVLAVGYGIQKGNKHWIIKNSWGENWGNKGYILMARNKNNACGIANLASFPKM
Description: as §1, §4, §2, §3

[4] = molecular target: T3, Human Cathepsin L (Homo sapiens, UniProt P07711); assay: Cathepsin peptidase activity assay, human cathepsin L (Ki); assay type: biochemical; details: pH 6.5, 25±1° C.
T3 construct: purchased CN Biosciences
T3 sequence (P07711 114-333): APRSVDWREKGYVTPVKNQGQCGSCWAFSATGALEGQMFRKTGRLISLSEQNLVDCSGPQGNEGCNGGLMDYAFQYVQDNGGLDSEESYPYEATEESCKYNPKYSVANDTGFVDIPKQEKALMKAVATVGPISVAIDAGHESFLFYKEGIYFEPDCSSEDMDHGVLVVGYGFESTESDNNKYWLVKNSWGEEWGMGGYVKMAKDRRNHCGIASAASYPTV
Description: as §1, §4, §2, §3

[5] = test system: Trypanosoma cruzi-infected mammalian cell cultures; details: added to Trypanosoma cruzi-infected mammalian cell cultures; cited from earlier work
[6] = test system: Trypanosoma cruzi infection; details: during the acute phase of infection; cited from earlier work

Cruzipain, sequence (P25779 whole entry): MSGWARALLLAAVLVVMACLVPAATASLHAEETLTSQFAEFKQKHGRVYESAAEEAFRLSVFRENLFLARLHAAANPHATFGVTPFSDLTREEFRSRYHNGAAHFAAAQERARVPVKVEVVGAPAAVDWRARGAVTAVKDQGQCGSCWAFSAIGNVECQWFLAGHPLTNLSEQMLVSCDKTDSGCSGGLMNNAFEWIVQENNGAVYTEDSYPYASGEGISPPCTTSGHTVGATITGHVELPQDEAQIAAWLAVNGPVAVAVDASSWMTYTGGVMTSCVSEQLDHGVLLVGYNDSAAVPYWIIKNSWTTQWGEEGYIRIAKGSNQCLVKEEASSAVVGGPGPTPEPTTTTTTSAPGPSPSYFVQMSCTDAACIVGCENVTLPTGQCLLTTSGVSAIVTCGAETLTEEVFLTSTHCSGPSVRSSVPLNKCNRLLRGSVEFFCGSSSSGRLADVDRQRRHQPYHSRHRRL

Ki [1] | Ki [2] | Ki [3] | Ki [4] | Structure (SMILES) | effect on replication and differentiation of the parasite [5] | cure [6]
> 100 µM | > 100 µM | > 100 µM | < 10 µM | C[C@H]1OCC(=O)[C@H]1NC(=O)[C@H](Cc1ccccc1)OCc1cccc2ccccc12 (racemic) [Example 49] | – | –
> 100 µM | < 10 µM | > 100 µM | > 100 µM | C[C@@H]1OCC(=O)[C@H]1NC(=O)[C@H](CC1CCCCC1)SCc1ccco1 [Example 4, (2S, 3S) 3-Cyclohexyl-2-(furan-2-ylmethylsulfanyl)-N-(2-methyl-4-oxo-tetrahydrofuran-3-yl)-propionamide] | – | –
– | – | – | – | CC(NC(=O)C(Cc1ccccc1)NC(=O)OCc1ccccc1)C(=O)CF (stereo not drawn) [Z-Phe-Ala-FMK] | blocked replication and differentiation of the parasite | –
< 5 µM | > 50 µM | > 5 µM | > 100 µM | CC(C)C[C@H](CC(=O)n1ccc(-c2ccccc2)c1)C(=O)N[C@@H]1C(=O)CO[C@@H]1C [Example 22, (2R, 3S) 4-Methyl-2-[2-oxo-2-(3-phenyl-pyrrol-1-yl)-ethyl]-pentanoic acid (2-methyl-4-oxo-tetrahydrofuran-3-yl)-amide] | – | –
– | – | – | – | O=C(Cn1ccnc1[N+](=O)[O-])NCc1ccccc1 [benznidazole] | – | ~60%
> 10 µM | > 20 µM | < 1 µM | > 5 µM | CC(C)CC(C(=O)N[C@H]1C(=O)CO[C@@H]1C)c1cccc(-c2ccccc2)c1 (mixture of isomers) [Example 46, (2R, 3R) 2-Biphenyl-3-yl-4-methyl-pentanoic acid (2-methyl-4-oxo-tetrahydrofuran-3-yl)-amide] | – | –
